Assay results taken from US12071450B2, “Salts of conjugates for cancer therapy” (Biosight Ltd., priority 2015, dated 2024).
pIC50: −log10 of the molar value. Counter-ions that a name gives are not always drawn. Blank lines part the entries; values can stand above or below the compound they belong to.

Tests used:
[1] = system: L1210 leukemia cancer cells; experiment: MTT proliferation assay, L1210 leukemia cancer cells; type: cell-based; settings: 72 hr incubation, formulated in saline, 6 replicates
Description: The L1210 leukemia cancer cells were grown in DMEM medium with 10% Donor Horse Serum, 1% Glutamine, 1% Non-essential Amino Acids, 0.1% Amphotericin, and 0.1% Gentamicin. Cells were diluted and seeded into 96-wells plate 2000 cells/ml, 400 cells/well, in a volume of 0.2 ml per well. The plates were incubated at 37° C. for 180 min. Following incubation, test substances were added at increasing concentrations from […] formulated in saline in 6 replicates each. The tested substances were Asp(Cytarabine).Acetate salt form, Asp(Cytarabine).hydrochloride salt form, Asp(Cytarabine).Methansulfonate salt form, Asp(Cytarabine).Benzenesulfonate salt form and Asp(Cytarabine).phosphate salt form. Test plates also included 6 replicate wells of saline as control. Plates were incubated at 37° C. for 72 hr prior to analysis. At the end of the exposure period, an MTT [3-(4,5-dimethylthiazole-2-yl)-2,5-diphenyl tetrazolium bromide] assay was performed. To each test well MTT at concentration of 5 mg/ml was added in a volume of 0.02 ml. Plates were incubated at 37° C. for 3 hr, then centrifuged at 3500 rpm for 6 minutes and the supernatants were aspirated. The pellets which contained MTT crystals were dissolved in 0.2 ml DMSO each. Absorbance was determined using ELISA reader at a wavelength of 570 nm.

[2] = system: K562, Human chronic myelogenous leukemia; experiment: MTT proliferation assay, K562 cells; type: cell-based; settings: 3 replicates
[3] = system: Molt-4, Human acute lymphoblastic leukemia; experiment: MTT proliferation assay, Molt-4 cells; type: cell-based; settings: 3 replicates
[4] = system: HL-60, Human promyelocytic leukemia; experiment: MTT proliferation assay, HL-60 cells; type: cell-based; settings: 3 replicates
[5] = system: CCRF-CEM, Human acute lymphoblastic leukemia; experiment: MTT proliferation assay, CCRF-CEM cells; type: cell-based; settings: 3 replicates
[6] = system: CCRF-SB, Human acute lymphoblastic leukemia; experiment: MTT proliferation assay, CCRF-SB cells; type: cell-based; settings: 3 replicates
[7] = Solubility in water and organic solvents; type: physicochemical
[8] = Stability (decomposition) in solvents; type: physicochemical; settings: rate is determined by heat and time

Compound: Asp(Cytarabine).methanesulfonate
pIC50 [1]: 8.70

Compound: Asp(Cytarabine).benzenesulfonate
pIC50 [1]: 7.64

Compound: Cl.NC(CC(=O)Nc1ccn([C@@H]2O[C@H](CO)C(O)C2O)c(=O)n1)C(=O)O (some centres unmarked) [Asp(Cytarabine)•hydrochloride salt form, Asp(Cytarabine).HCl]
pIC50 [1]: 6.62
solubility in organic solvents ([7]; most organic solvents: acetonitrile, ethers, ketones, halogenated solvents): insoluble
solubility in water ([7]; water): soluble
stability in strong polar aprotic solvents ([8]; DMSO and DMF): decompose
stability in water ([8]; water): decompose

More lines, now with the values ahead:

pIC50 [1]: 7.47
Compound: Asp(Cytarabine).phosphate [Asp(Cytarabine)•phosphate salt form]

pIC50 [1]: 6.94
pIC50 [2]: 6.45
pIC50 [3]: 7.92
pIC50 [4]: 6.58
pIC50 [5]: 7.64
pIC50 [6]: 4.72
Compound: NC(CC(=O)Nc1ccn([C@@H]2O[C@H](CO)C(O)C2O)c(=O)n1)C(=O)O (some centres unmarked) [Asp(Cytarabine)•Acetate salt form, Asp(Cytarabine).Acetate]
